# Results reported in patent US12678507B2, “Protein tyrosine kinase 6 (PTK6) degradation / disruption compounds and methods of use” (Icahn School of Medicine at Mount Sinai, priority 2018, dated 2026).
# Biological target: T1, PTK6 (Homo sapiens, UniProt Q13882)
# T1 construct: endogenous in cells; host or cells: MDA-MB231 cells (ATCC)
# Test: Western blot of PTK6 protein levels in MDA-MB231 cells
# Format: cell-based
# Settings: MDA-231 (MDA-MB231) cells, 500 nM, 24 hours, Western blot (FIGS. 3-5)
# Protocol: FIGS. 2-5. Effects of exemplary compounds on reducing PTK6 protein levels in breast cancer cells. Triple negative MDA-MB231 cells were treated for 24 hours with 500 nM, 2 uM or 2.5 uM of test compound and lysed. Proteins were resolved by SDS/PAGE and immunoblotted with antibody to PTK6 (Santa Cruz, Cell Signaling) or GAPDH loading control (Cell Signaling).
# FIG. 13. PTK6 degraders suppress PTK6 expression. MDA-MB231 cells were treated with compounds (500 nM or 1 uM) for 24 hours in monolayer cultures. Cells were lysed and lysates were probed with anti-PTK6 antibody.
# MDA-MB231 cells were treated with DMSO or indicated compounds at 2.5 uM, 2 uM or 500 nM for 24 hours.
# MDA-MB231 cells were treated with compounds (500 nM or 1 uM) for 24 hours in monolayer cultures. Cells were lysed and lysates were probed with anti-PTK6 antibody.
# Cells were lysed in 1% NP-40 lysis buffer containing NaF, Na3VO4, Leupeptin, PMSF, aprotinin, and phosphatase inhibitor (PhosSTOP, Roche) as described previously (Irie et al., 2010). Cleared cell lysates were stored at −80° C. and were analyzed by western analysis as described previously (Irie et al., 2010).
# T1 sequence (Q13882 whole entry): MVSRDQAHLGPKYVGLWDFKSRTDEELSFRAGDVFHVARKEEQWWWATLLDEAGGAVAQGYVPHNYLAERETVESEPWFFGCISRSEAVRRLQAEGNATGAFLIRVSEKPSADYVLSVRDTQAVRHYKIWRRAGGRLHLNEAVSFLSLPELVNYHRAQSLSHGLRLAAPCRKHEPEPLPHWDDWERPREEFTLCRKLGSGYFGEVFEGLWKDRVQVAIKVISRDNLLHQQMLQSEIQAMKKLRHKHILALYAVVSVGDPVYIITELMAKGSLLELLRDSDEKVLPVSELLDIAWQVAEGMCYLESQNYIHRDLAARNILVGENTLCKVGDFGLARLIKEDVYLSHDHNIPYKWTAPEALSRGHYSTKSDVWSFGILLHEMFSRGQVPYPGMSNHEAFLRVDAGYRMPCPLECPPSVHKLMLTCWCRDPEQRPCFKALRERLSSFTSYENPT
row,SMILES,reducing PTK6 protein levels / suppress PTK6 expression
1,"Cc1ncsc1-c1ccc(CNC(=O)[C@@H]2C[C@@H](O)CN2C(=O)[C@@H](NC(=O)CCCCNC(=O)CN2CCN(C(=O)c3ccc(Nc4nc(C5CC5)cn5c(-c6cn[nH]c6)cnc45)c(F)c3)CC2)C(C)(C)C)cc1 [YX39-101, (2S,4R)-1-((S)-2-(5-(2-(4-(4-((6-cyclopropyl-3-(1H-pyrazol-4-yl)imidazo[1,2-a]pyrazin-8-yl)amino)-3-fluorobenzoyl)piperazin-1-yl)acetamido)pentanamido)-3,3-dimethylbutanoyl)-4-hydroxy-N-(4-(4-methylthiazol-5-yl)benzyl)pyrrolidine-2-carboxamide]",effective in reducing PTK6 protein levels
2,"Cc1ncsc1-c1ccc(CNC(=O)[C@@H]2C[C@@H](O)CN2C(=O)[C@@H](NC(=O)CCCCCNC(=O)CN2CCN(C(=O)c3ccc(Nc4nc(C5CC5)cn5c(-c6cn[nH]c6)cnc45)c(F)c3)CC2)C(C)(C)C)cc1 [YX39-102, (2S,4R)-1-((S)-2-(6-(2-(4-(4-((6-cyclopropyl-3-(1H-pyrazol-4-yl)imidazo[1,2-a]pyrazin-8-yl)amino)-3-fluorobenzoyl)piperazin-1-yl)acetamido)hexanamido)-3,3-dimethylbutanoyl)-4-hydroxy-N-(4-(4-methylthiazol-5-yl)benzyl)pyrrolidine-2-carboxamide]",effective in reducing PTK6 protein levels
3,"Cc1ncsc1-c1ccc(CNC(=O)[C@@H]2C[C@@H](O)CN2C(=O)[C@@H](NC(=O)CCCCCCCNC(=O)CN2CCN(C(=O)c3ccc(Nc4nc(C5CC5)cn5c(-c6cn[nH]c6)cnc45)c(F)c3)CC2)C(C)(C)C)cc1 [YX39-104, (2S,4R)-1-((S)-2-(8-(2-(4-(4-((6-cyclopropyl-3-(1H-pyrazol-4-yl)imidazo[1,2-a]pyrazin-8-yl)amino)-3-fluorobenzoyl)piperazin-1-yl)acetamido)octanamido)-3,3-dimethylbutanoyl)-4-hydroxy-N-(4-(4-methylthiazol-5-yl)benzyl)pyrrolidine-2-carboxamide]",effective in reducing PTK6 protein levels
4,"Cc1ncsc1-c1ccc(CNC(=O)[C@@H]2C[C@@H](O)CN2C(=O)[C@@H](NC(=O)CCCCCCCCCNC(=O)CN2CCN(C(=O)c3ccc(Nc4nc(C5CC5)cn5c(-c6cn[nH]c6)cnc45)c(F)c3)CC2)C(C)(C)C)cc1 [YX39-106, (2S,4R)-1-((S)-2-(10-(2-(4-(4-((6-cyclopropyl-3-(1H-pyrazol-4-yl)imidazo[1,2-a]pyrazin-8-yl)amino)-3-fluorobenzoyl)piperazin-1-yl)acetamido)decanamido)-3,3-dimethylbutanoyl)-4-hydroxy-N-(4-(4-methylthiazol-5-yl)benzyl)pyrrolidine-2-carboxamide]",effective in reducing PTK6 protein levels
5,"Cc1ncsc1-c1ccc(CNC(=O)[C@@H]2C[C@@H](O)CN2C(=O)[C@@H](NC(=O)CCCCCCCCCCNC(=O)CN2CCN(C(=O)c3ccc(Nc4nc(C5CC5)cn5c(-c6cn[nH]c6)cnc45)c(F)c3)CC2)C(C)(C)C)cc1 [YX39-107, (2S,4R)-1-((S)-2-(11-(2-(4-(4-((6-cyclopropyl-3-(1H-pyrazol-4-yl)imidazo[1,2-a]pyrazin-8-yl)amino)-3-fluorobenzoyl)piperazin-1-yl)acetamido)undecanamido)-3,3-dimethylbutanoyl)-4-hydroxy-N-(4-(4-methylthiazol-5-yl)benzyl)pyrrolidine-2-carboxamide]",effective in reducing PTK6 protein levels
6,"Cc1ncsc1-c1ccc([C@H](C)NC(=O)[C@@H]2C[C@@H](O)CN2C(=O)[C@@H](NC(=O)COCCOCCOCCNC(=O)CN2CCN(C(=O)c3ccc(Nc4nc(C5CC5)cn5c(-c6cn[nH]c6)cnc45)c(F)c3)CC2)C(C)(C)C)cc1 [YX69-159, (2S,4R)-1-((S)-2-(tert-butyl)-17-(4-(4-((6-cyclopropyl-3-(1H-pyrazol-4-yl)imidazo[1,2-a]pyrazin-8-yl)amino)-3-fluorobenzoyl)piperazin-1-yl)-4,16-dioxo-6,9,12-trioxa-3,15-diazaheptadecanoyl)-4-hydroxy-N-((S)-1-(4-(4-methylthiazol-5-yl)phenyl)ethyl)pyrrolidine-2-carboxamide]",potently suppress PTK6 expression
7,"Cc1ncsc1-c1ccc(CNC(=O)[C@@H]2C[C@@H](O)CN2C(=O)[C@@H](NC(=O)CCCC(=O)N2CCN(C(=O)c3ccc(Nc4nc(C5CC5)cn5c(-c6cn[nH]c6)cnc45)c(F)c3)CC2)C(C)(C)C)cc1 [YX79-10, (2S,4R)-1-((S)-2-(5-(4-(4-((6-cyclopropyl-3-(1H-pyrazol-4-yl)imidazo[1,2-a]pyrazin-8-yl)amino)-3-fluorobenzoyl)piperazin-1-yl)-5-oxopentanamido)-3,3-dimethylbutanoyl)-4-hydroxy-N-(4-(4-methylthiazol-5-yl)benzyl)pyrrolidine-2-carboxamide]",potently suppress PTK6 expression
8,"Cc1ncsc1-c1ccc(CNC(=O)[C@@H]2C[C@@H](O)CN2C(=O)[C@@H](NC(=O)CCCCC(=O)N2CCN(C(=O)c3ccc(Nc4nc(C5CC5)cn5c(-c6cn[nH]c6)cnc45)c(F)c3)CC2)C(C)(C)C)cc1 [YX79-11, (2S,4R)-1-((S)-2-(6-(4-(4-((6-cyclopropyl-3-(1H-pyrazol-4-yl)imidazo[1,2-a]pyrazin-8-yl)amino)-3-fluorobenzoyl)piperazin-1-yl)-6-oxohexanamido)-3,3-dimethylbutanoyl)-4-hydroxy-N-(4-(4-methylthiazol-5-yl)benzyl)pyrrolidine-2-carboxamide]",potently suppress PTK6 expression
9,"Cc1ncsc1-c1ccc(CNC(=O)[C@@H]2C[C@@H](O)CN2C(=O)[C@@H](NC(=O)CCCCCC(=O)N2CCN(C(=O)c3ccc(Nc4nc(C5CC5)cn5c(-c6cn[nH]c6)cnc45)c(F)c3)CC2)C(C)(C)C)cc1 [YX79-12, (2S,4R)-1-((S)-2-(7-(4-(4-((6-cyclopropyl-3-(1H-pyrazol-4-yl)imidazo[1,2-a]pyrazin-8-yl)amino)-3-fluorobenzoyl)piperazin-1-yl)-7-oxoheptanamido)-3,3-dimethylbutanoyl)-4-hydroxy-N-(4-(4-methylthiazol-5-yl)benzyl)pyrrolidine-2-carboxamide]",potently suppress PTK6 expression
10,"Cc1ncsc1-c1ccc(CNC(=O)[C@@H]2C[C@@H](O)CN2C(=O)[C@@H](NC(=O)CCOCCC(=O)N2CCN(C(=O)c3ccc(Nc4nc(C5CC5)cn5c(-c6cn[nH]c6)cnc45)c(F)c3)CC2)C(C)(C)C)cc1 [YX79-15, (2S,4R)-1-((S)-2-(3-(3-(4-(4-((6-cyclopropyl-3-(1H-pyrazol-4-yl)imidazo[1,2-a]pyrazin-8-yl)amino)-3-fluorobenzoyl)piperazin-1-yl)-3-oxopropoxy)propanamido)-3,3-dimethylbutanoyl)-4-hydroxy-N-(4-(4-methylthiazol-5-yl)benzyl)pyrrolidine-2-carboxamide]",potently suppress PTK6 expression
11,"O=C1CCC(N2C(=O)c3cccc(NCCOCCOCCC(=O)N4CCN(C(=O)c5ccc(Nc6nc(C7CC7)cn7c(-c8cn[nH]c8)cnc67)c(F)c5)CC4)c3C2=O)C(=O)N1 (centres unmarked) [YX79-36, 4-((2-(2-(3-(4-(4-((6-cyclopropyl-3-(1H-pyrazol-4-yl)imidazo[1,2-a]pyrazin-8-yl)amino)-3-fluorobenzoyl)piperazin-1-yl)-3-oxopropoxy)ethoxy)ethyl)amino)-2-(2,6-dioxopiperidin-3-yl)isoindoline-1,3-dione]",potently suppress PTK6 expression
